Patent publication US10780074B2, “Compounds and uses thereof” (Sunovion Pharmaceuticals Inc., priority 2017, dated 2020)
Where a name gives a salt, the structure may show the parent alone.

Tested on: behaviors of compound-treated mice
Test: Neuropharmacological Assay (SmartCube)
Type: in vivo
Conditions: for minimal effective dose: Mus musculus, ip, 0.25 h, dose having 50% or more total activity in SmartCube, i.p., read-out: MED (minimal effective dose); for AD: ADHD (probability that activity matches class) / AG: analgesic (probability that activity matches class) / AX: anxiolytic (probability that activity matches class) / CE: cognitive enhancer (probability that activity matches class) / DP: anti-depressant (probability that activity matches class) / MS: mood stabilizer (probability that activity matches class) / PS: anti-psychotic (probability that activity matches class) / SD: sedative hypnotic (probability that activity matches class) / UN: uncharacterized CNS activity (probability that activity matches class): i.p. 15 min before behavioral test, most efficacious dose(s) of 3 doses
Summary of the method: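 Behavioral signatures were captured automatically by video, and each drug class received a probability for the best of three i.p. doses given 15 min pre-test (vehicle: Pharmasolve/PEG/propylene glycol). Potency is given as MED, the lowest mpk dose (typically 0.3–30) reaching 50% or more total activity.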

SMILES	minimal effective dose	AD: ADHD (probability that activity matches class)	AG: analgesic (probability that activity matches class)	AX: anxiolytic (probability that activity matches class)	CE: cognitive enhancer (probability that activity matches class)	DP: anti-depressant (probability that activity matches class)	MS: mood stabilizer (probability that activity matches class)	PS: anti-psychotic (probability that activity matches class)	SD: sedative hypnotic (probability that activity matches class)	UN: uncharacterized CNS activity (probability that activity matches class)
CNC[C@H]1OCCc2ccc(-c3cccnc3)cc21 [Compound 4, (S)-N-methyl-1-(7-(pyridin-3-yl)isochroman-1-yl)methanamine dihydrochloride]	3 to 10 mg/kg	+ (LOQ ≤ + <5%)	+ (LOQ ≤ + <5%)	++ (5% ≤ ++ <25%)	+ (LOQ ≤ + <5%)	++ (5% ≤ ++ <25%)	+ (LOQ ≤ + <5%)	+++ (25% ≤ +++ <50%)	+ (LOQ ≤ + <5%)	++ (5% ≤ ++ <25%)
NC[C@@H]1OCCc2c(-c3ccncn3)cccc21 (single isomer, unassigned) [Compound 74, hydrochloride salt]	> 30 mg/kg	+ (LOQ ≤ + <5%)	+ (LOQ ≤ + <5%)	+ (LOQ ≤ + <5%)	+ (LOQ ≤ + <5%)	++ (5% ≤ ++ <25%)	+ (LOQ ≤ + <5%)	+ (LOQ ≤ + <5%)	+ (LOQ ≤ + <5%)	+ (LOQ ≤ + <5%)
CCNC[C@H]1OCCc2c(-c3ccncc3)cccc21 (single isomer, unassigned) [Compound 67, hydrochloride salt]	≤ 3 mg/kg	+ (LOQ ≤ + <5%)	+ (LOQ ≤ + <5%)	+ (LOQ ≤ + <5%)	+ (LOQ ≤ + <5%)	++++ (50% ≤ ++++)	+ (LOQ ≤ + <5%)	+ (LOQ ≤ + <5%)	+ (LOQ ≤ + <5%)	++ (5% ≤ ++ <25%)
CNC[C@@H]1OCCc2c(-c3cncs3)cccc21 (single isomer, unassigned) [Compound 68, hydrochloride salt]	3 to 10 mg/kg	++ (5% ≤ ++ <25%)	+ (LOQ ≤ + <5%)	++ (5% ≤ ++ <25%)	+ (LOQ ≤ + <5%)	++++ (50% ≤ ++++)	+ (LOQ ≤ + <5%)	+ (LOQ ≤ + <5%)	+ (LOQ ≤ + <5%)	++ (5% ≤ ++ <25%)
CNC[C@H]1OCCc2c(-c3cccnc3)cccc21 (single isomer, unassigned) [Compound 8, bis-hydrochloride]	≤ 3 mg/kg	++ (5% ≤ ++ <25%)	+ (LOQ ≤ + <5%)	++ (5% ≤ ++ <25%)	+ (LOQ ≤ + <5%)	++++ (50% ≤ ++++)	+ (LOQ ≤ + <5%)	+ (LOQ ≤ + <5%)	+ (LOQ ≤ + <5%)	+ (LOQ ≤ + <5%)
CNC[C@H]1OCCc2cc(-c3cccnn3)ccc21 (single isomer, unassigned) [Compound 32, hydrochloride]	> 30 mg/kg	+ (LOQ ≤ + <5%)	+ (LOQ ≤ + <5%)	+ (LOQ ≤ + <5%)	+ (LOQ ≤ + <5%)	+ (LOQ ≤ + <5%)	+ (LOQ ≤ + <5%)	+ (LOQ ≤ + <5%)	+ (LOQ ≤ + <5%)	+ (LOQ ≤ + <5%)
CNC[C@H]1OCCc2cc(-c3ncccn3)ccc21 [Compound 22, (S)—N-Methyl-1-(6-(pyrimidin-2-yl)isochroman-1-yl)methanamine hydrochloride salt]	10 to 30 mg/kg	+ (LOQ ≤ + <5%)	++ (5% ≤ ++ <25%)	++ (5% ≤ ++ <25%)	++ (5% ≤ ++ <25%)	++ (5% ≤ ++ <25%)	+ (LOQ ≤ + <5%)	+ (LOQ ≤ + <5%)	+ (LOQ ≤ + <5%)	+++ (25% ≤ +++ <50%)
NC[C@H]1OCCCc2c(-c3ccncn3)cccc21 (single isomer, unassigned) [Compound 167]	10 to 30 mg/kg	+ (LOQ ≤ + <5%)	+ (LOQ ≤ + <5%)	+ (LOQ ≤ + <5%)	+ (LOQ ≤ + <5%)	+ (LOQ ≤ + <5%)	+ (LOQ ≤ + <5%)	+ (LOQ ≤ + <5%)	+ (LOQ ≤ + <5%)	+ (LOQ ≤ + <5%)
NC[C@H]1OCCc2c(-c3cnco3)cccc21 (single isomer, unassigned) [Compound 99, hydrochloride salt]	≤ 3 mg/kg	+ (LOQ ≤ + <5%)	++ (5% ≤ ++ <25%)	++ (5% ≤ ++ <25%)	++ (5% ≤ ++ <25%)	+ (LOQ ≤ + <5%)	+ (LOQ ≤ + <5%)	+ (LOQ ≤ + <5%)	++ (5% ≤ ++ <25%)	+++ (25% ≤ +++ <50%)
